Source: patent EP4711366A1, “PYRIMIDO MACROHETEROCYCLIC COMPOUND AS WEE1-YES DUAL-TARGET INHIBITOR AND USE THEREOF” (Mindrank AI Ltd., priority 2023, dated 2024)

Key:
A427 cells = test: Tumor cell proliferation inhibitory activity assay (CCK-8); type: cell-based, Human; settings: for IC50: CCK-8; for activity in inhibiting cancer cell proliferation compared with reference compound Debio 0123 or ZN-c3: comparison in words
Description: Human lung cancer A427 cells are cancer cells reported to be sensitive to wee1 inhibitors. In this assay, the anti-cancer effects of the compounds of the present disclosure were verified by assessing the activity of the test substances in inhibiting A427 cell proliferation.
A427 cells were cultured according to the cell culture instructions, and cells in the logarithmic growth phase were collected, counted, resuspended in a complete culture medium, and inoculated into a 96-well plate at a cell concentration of 100 µL/3000 cells/well. The cells were incubated in an incubator at 37 °C with 100% relative humidity and 5% CO2 for 24 h.
The compounds to be tested were dissolved in DMSO and diluted 4-fold with a culture medium from 10 µM to 10 concentration gradients.
The culture medium waste was pipetted off, and 100 µL of the formulated culture medium of the compound to be tested was added to each well. The cells were incubated in an incubator at 37 °C with 100% relative humidity and 5% CO2 for 72 h.
The plate was taken out, the CCK-8 reagent was added at 10 µL/well, and the plate was incubated in an incubator at 37 °C for 2-4 h.
The cell growth inhibition rates of the drugs were calculated using the following formula: Cell growth inhibition rate% = [(Ac−As)/(Ac−Ab)] × 100% [formula] • As: the OA of the samples (cells + CCK-8 + compounds to be tested) • Ac: the OA of the normal growth cell control (cells + CCK-8) • Ab: the OA of the blank control (culture medium + CCK-8)
IC50 curve fitting was performed using the software Graphpad Prism 6 and the calculation formula XY-analysis/Nonlinear regression(curve fit)/Dose response-Inhibition/log(inhibitor)vs. response-Variable slope(four parameters), and the IC50 values were calculated. Table 1. Data analysis and results for some representative compounds

Wee1 kinase = Wee1 kinase (Homo sapiens, UniProt P30291); test: WEE1 protein kinase inhibitory activity assay (ADP-GLO luminescence); type: biochemical; settings: for IC50: Wee1 10 ng/well, ATP 10 µM, 3 h, 37 °C; for inhibition of the Weel target (in words): summary statement on the assay results
Wee1 kinase, sequence (P30291 whole entry): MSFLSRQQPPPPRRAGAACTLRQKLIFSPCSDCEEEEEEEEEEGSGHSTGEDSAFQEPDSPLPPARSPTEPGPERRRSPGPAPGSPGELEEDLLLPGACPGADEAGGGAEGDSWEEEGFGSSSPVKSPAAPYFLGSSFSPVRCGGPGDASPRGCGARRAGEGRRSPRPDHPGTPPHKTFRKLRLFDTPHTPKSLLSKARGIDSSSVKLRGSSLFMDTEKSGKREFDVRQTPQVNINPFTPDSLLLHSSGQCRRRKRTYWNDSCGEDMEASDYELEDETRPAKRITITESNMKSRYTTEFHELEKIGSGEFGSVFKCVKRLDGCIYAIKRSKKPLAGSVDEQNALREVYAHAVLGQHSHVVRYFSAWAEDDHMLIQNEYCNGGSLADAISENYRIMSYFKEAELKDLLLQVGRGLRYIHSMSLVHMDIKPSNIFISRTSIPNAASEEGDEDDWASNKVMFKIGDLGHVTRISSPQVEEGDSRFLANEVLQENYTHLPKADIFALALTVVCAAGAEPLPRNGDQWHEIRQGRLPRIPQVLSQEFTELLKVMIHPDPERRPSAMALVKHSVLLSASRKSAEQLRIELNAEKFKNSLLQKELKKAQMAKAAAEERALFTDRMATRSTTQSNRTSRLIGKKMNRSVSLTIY
Description: The influence of the compound MRANK-106 of the present disclosure on the kinase activity of Weel was assessed using an in vitro kinase reaction system.
Table 2-1. Information about reagents and consumables
① 1× kinase buffer: A 5× kinase buffer was diluted with ddH2O to make a 1× kinase buffer. Table 2-3. The reagent components added to the 1× kinase buffer
③ 5× enzyme working solution: The optimization of the enzyme concentration had been completed in previous work, and the concentration of the reagent used in the screening is shown in Table 2-4. A 5× enzyme working solution of the enzyme was formulated using the 1× kinase buffer.
④ Compound formulation: A 10 mM mother liquor was formulated using DMSO, aliquoted, and then stored at -20 °C. Immediately before use, the mother liquor was thawed, diluted with DMSO to 1 mM, serially diluted 4-fold to 10 concentration points, and then 40-fold diluted with the 1× kinase buffer to give a 2.5× working solution. Table 2-4. The experimental conditions for the kinase activity assay
After the above reagents were formulated and equilibrated to room temperature, 4 µL of the diluted solution of the compound to be tested and 2 µL of the formulated enzyme solution were added to reaction wells. After shaking and centrifugation, the plate was incubated at room temperature for 15 min, and 4 µL of the ATP solution was then added to start a kinase reaction. After 3 h of reaction at 37 °C, 10 µL of an ADP-GLO reagent was added. After thorough mixing, the mixture was left to react at room temperature for 40 min, and 20 µL of a detection reagent was then added. After 30 min of reaction at room temperature, the luminescence signals were detected using a SpectraMax L instrument. Two independent duplicate assays were performed. The inhibition rate of each well was calculated based on all activity wells and background signal wells, with an average calculated for duplicate wells. Meanwhile, the inhibition rate was plotted using the professional graphing and analysis software PRISM 9.0, and the IC50 was calculated.
The inhibition rates of the compounds to be tested against the kinase activity of Wee1 were calculated using the following formula: Inhibition rate% = (Lumvehicle−Lumcompound)/(Lumvehicle−Lumblank) × 100% [formula] • Lumcompound: the luminescence of the sample treatment groups • Lumvehicle: the luminescence of the solvent control group • Lumblank: the luminescence of the blank group

YES1 kinase = YES1 kinase (Homo sapiens, UniProt P07947); test: YES1 protein kinase inhibitory activity assay (HTRF); type: biochemical; settings: for IC50: HTRF, YES1 kinase, ATP 10 µM; for inhibition of the Yes target (in words): summary statement on the assay results
YES1 kinase, sequence (P07947 whole entry): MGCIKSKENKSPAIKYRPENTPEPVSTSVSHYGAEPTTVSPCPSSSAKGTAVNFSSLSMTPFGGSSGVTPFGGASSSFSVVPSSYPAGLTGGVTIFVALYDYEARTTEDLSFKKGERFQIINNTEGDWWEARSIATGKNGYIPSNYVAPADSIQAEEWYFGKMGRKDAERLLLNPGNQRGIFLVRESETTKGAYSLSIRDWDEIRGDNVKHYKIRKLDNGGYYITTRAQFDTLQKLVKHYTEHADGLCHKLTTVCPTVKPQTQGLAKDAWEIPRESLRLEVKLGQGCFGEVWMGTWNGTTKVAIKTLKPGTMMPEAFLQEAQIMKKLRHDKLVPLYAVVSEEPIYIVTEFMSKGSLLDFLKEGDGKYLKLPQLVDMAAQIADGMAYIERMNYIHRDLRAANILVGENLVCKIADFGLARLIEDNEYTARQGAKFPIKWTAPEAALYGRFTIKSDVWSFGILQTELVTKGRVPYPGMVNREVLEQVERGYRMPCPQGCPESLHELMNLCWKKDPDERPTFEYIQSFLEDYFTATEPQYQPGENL
Description: In this experiment, the capability of the compound MRANK-106 of the present disclosure to inhibit kinase activity was assessed by an HTRF method using a drug screening system based on the YES1 kinase.
Table 3-1. Information about reagents and consumables
The enzymatic activity conditions and HTRF system formulation are shown in Table 3-3; the experimental conditions for the kinase activity assay are shown in Table 3-4. Table 3-3. HTRF system formulation
Table 3-4. The experimental conditions for the kinase activity assay
The test compound MRANK-106 was dissolved in DMSO, and the solution was vortexed and shaken for thorough mixing. The solution was serially diluted 3-fold with DMSO, with the initial concentration being 503 nM.
① A 2× ATP/substrate solution and a 2× kinase solution were formulated using a kinase reaction buffer.
② 50 nL of the compound dilution was transferred to a 384 detection plate using Echo 655. After centrifugation, 2.5 µL of a 2× kinase solution was added to the 384 detection plate. The plate was centrifuged at 1000 rpm for 1 min and incubated at 25 °C for 10 min.
② 2.5 µL of the 2× substrate and ATP solution was added to the 384 detection plate, and the plate was centrifuged at 1000 rpm for 1 min and incubated at 25 °C for 60 min.
④ A 2× XL665 and antibody detection reagent was formulated using a detection buffer.
⑤ 5 µL of a kinase detection reagent was added to the detection plate, and the plate was incubated at 25 °C. The plate was centrifuged at 1000 rpm for 1 min and incubated at 25 °C for 1 h.
⑥ The fluorescence signals at 620 nm (Cryptate) and 665 nm (XL665) were read using a BMG high-throughput drug-screening multi-mode microplate reader.
With the reading of the negative control set as an inhibition rate of 0% and the reading of the positive control set as an inhibition rate of 100%, the inhibition rate of each test solution was calculated using the following formula: [formula] • Datapositive control: the average of the positive control well values • Datanegative control : the average of the negative control well values
The IC50 (half maximal inhibitory concentration) of the compound was obtained using the following nonlinear fitting formulas: Y = Bottom + (Top−Bottom)/(1+10^(∧)((LogIC50−X)*HillSlope)) [formula] • X: the log value of the compound concentration • Y: the inhibition rate (% inh) of the compound
The Z' factor calculation equation: Z′ = 1−3(SDmin+SDmax)/(AVEmax−AVEmin) [formula] where: • Min is the positive control Data value, and Max is the negative control DMSO Data value; • SD stands for standard deviation, and AVE stands for average.

[1] = Homo sapiens, A-427, 72 h compound incubation

| SMILES | IC50 (A427 cells; [1]) [nM] | IC50 (Wee1 kinase) [nM] | inhibition of the Weel target (in words) (Wee1 kinase) | IC50 (YES1 kinase) [nM] | inhibition of the Yes target (in words) (YES1 kinase) | activity in inhibiting cancer cell proliferation compared with reference compound Debio 0123 or ZN-c3 (A427 cells) | IC50 (A427 cells; 72 h compound incubation) [nM] |
| --- | --- | --- | --- | --- | --- | --- | --- |
| CCOP1(=O)CCN(c2ccc(Nc3ncc4c(=O)n5n(c4n3)-c3cccc(n3)C(C)(O)CCC=CC5)cc2C)CC1 (racemic) [Compound 182, (Z)-2-((4-(4-ethoxy-4-oxido-1,4-azaphosphinan-1-yl)-3-methylphenyl)amino)-12-hydroxy-12-methyl-7,10,11,12-tetrahydro-5H-13,17-(azeno)pyrimido[4',5':3,4]pyrazolo[1,2-a][1,2]diazacyclotridecin-5-one] | 160 | 30.1 | strongly inhibited | 19.9 | strongly inhibited | – | – |
| [2H]C1(Oc2ccc(Nc3ncc4c(=O)n5n(c4n3)-c3cccc(n3)[C@](C)(O)CCC=CC5)cc2C)CCN(C)CC1 (single isomer, unassigned) [Compound 172A] | 15 | 6.5 | strongly inhibited | 5.8 | strongly inhibited | several times to several dozen times higher | – |
| Cc1cc(Nc2ncc3c(=O)n4n(c3n2)-c2cccc(n2)C(C)(O)CC/C=C\C4)ccc1NC1CCN(C)CC1 (single isomer, unassigned) [Compound 203A] | 71 | 13.2 | – | – | – | several times to several dozen times higher | – |
| Cc1cc(Nc2ncc3c(=O)n4n(c3n2)-c2cccc(n2)[C@](C)(O)CCCCC4)ccc1OC1CCN(C)CC1 [Compound 28, (R)-12-hydroxy-12-methyl-2-((3-methyl-4-((1-methylpiperidin-4-yl)oxy)phenyl)amino)-7,8,9,10,11,12-hexahydro-5H-13,17-(azeno)pyrimido[4',5':3,4]pyrazolo[1,2-a][1,2]diazacyclotridecin-5-one] | 152 | – | – | – | – | – | – |
| Cc1cc(Nc2ncc3c(=O)n4n(c3n2)-c2cccc(n2)C(C)(O)CCC=CC4)ccc1OC1(C)CCN(C)CC1 (stereo not shown) [Compound 89, (Z)-2-((4-((1,4-dimethylpiperidin-4-yl)oxy)-3-methylphenyl)amino)-12-hydroxy-12-methyl-7,10,11,12-tetrahydro-5H-13,17-(azeno)pyrimido[4',5':3,4]pyrazolo[1,2-a][1,2]diazacyclotridecin-5-one] | 219 | 66.8 | strongly inhibited | 18.5 | strongly inhibited | – | – |
| COc1cc(Nc2ncc3c(=O)n4n(c3n2)-c2cccc(n2)[C@](C)(O)CCC=CC4)ccc1OC1CCN(C)CC1 [Compound 143, (R,Z)-12-hydroxy-2-((3-methoxy-4-((1-methylpiperidin-4-yl)oxy)phenyl)amino)-12-methyl-7,10,11,12-tetrahydro-5H-13,17-(azeno)pyrimido[4',5':3,4]pyrazolo[1,2-a][1,2]diazacyclotridecin-5-one] | 65 | – | – | – | – | several times to several dozen times higher | – |
| Cc1cc(Nc2ncc3c(=O)n4n(c3n2)-c2cccc(n2)C(C)(O)CCC=CC4)ccc1OC1CN(C)[C@H]1C (stereo partly drawn) [Compound 202, (Z)-2-((4-(((2S)-1,2-dimethylazetidin-3-yl)oxy)-3-methylphenyl)amino)-12-hydroxy-12-methyl-7,10,11,12-tetrahydro-5H-13,17-(azeno)pyrimido[4',5':3,4]pyrazolo[1,2-a][1,2]diazacyclotridecin-5-one] | 78 | 16.4 | strongly inhibited | 18.8 | strongly inhibited | several times to several dozen times higher | – |
| Cc1cc(Nc2ncc3c(=O)n4n(c3n2)-c2cccc(n2)[C@](C)(O)CCC=CC4)ccc1OC1CCN(C2COC2)CC1 [Compound 205, (R,Z)-12-hydroxy-12-methyl-2-((3-methyl-4-((1-(oxetan-3-yl)piperidin-4-yl)oxy)phenyl)amino)-7,10,11,12-tetrahydro-5H-13,17-(azeno)pyrimido[4',5':3,4]pyrazolo[1,2-a][1,2]diazacyclotridecin-5-one] | 163 | – | – | – | – | – | – |
| CN1CCN(Cc2ccc(Nc3ncc4c(=O)n5n(c4n3)-c3cccc(n3)C(C)(O)CCC=CC5)cc2)CC1 (stereo not shown) [Compound 214, (Z)-12-hydroxy-12-methyl-2-((4-((4-methylpiperazin-1-yl)methyl)phenyl)amino)-7,10,11,12-tetrahydro-5H-13,17-(azeno)pyrimido[4',5':3,4]pyrazolo[1,2-a][1,2]diazacyclotridecin-5-one] | 144 | – | – | – | – | – | – |
| Cc1cc(Nc2ncc3c(n2)N(C)CN(c2c(Cl)cccc2Cl)C3=O)ccc1C1CCN(C)CC1 [Debio 0123, reference compound] | – | – | – | – | – | – | 1610 |
